Values after ≈ are worked out from the molar mass of the structure shown.
Settings: buffer; pH 7.4; 200.0 µM

| SMILES | solubility kinetic [µg/mL] |
| --- | --- |
| Cc1c(NC(=O)c2ccc(-c3ccccc3)cc2)cccc1C(=O)O | 42.3 (≈ 128 µM) |
| COc1ccc(C(=O)Nc2ccc(Nc3ccccc3)cc2)cc1Br | < 0.4 |
| O=C(CSc1nncn1-c1ccccc1)NC1CCCC1 | > 45.4 |
| O=C(NC(=S)NCc1ccco1)c1ccc([N+](=O)[O-])cc1 | 4.6 (≈ 15.1 µM) |
| Cc1ccc(CN2CCCN(Cc3ccc(C)cc3)S2(=O)=O)cc1 | < 0.4 |
| CSc1c(C#N)c(N)nc2sc(C(=O)c3ccccc3)c(N)c12 | 3.1 (≈ 9.11 µM) |
| CCOc1cc(CNc2ccc(N3CCCC3)cc2)cc(Cl)c1OC | < 0.4 |
| O=C(CSc1ccccn1)Nc1ccc2c(c1)OCCO2 | > 45.4 |
| CC(C)OCCCNC(=O)CN1C(=O)c2cccc3cccc1c23 | > 49 |
| COC(=O)c1ccc(NC(=O)c2ccc(OC(C)=O)c(OC)c2)cc1 | 3.1 (≈ 9.03 µM) |
| COc1ccc2nc(N(Cc3ccccc3)C(=O)CCNC(C)=O)sc2c1 | 3.3 (≈ 8.61 µM) |
| O=C(c1ccccc1)C1CCN(C(=O)c2ccco2)CC1 | 41.6 (≈ 147 µM) |
| O=C(COc1cccnc1[N+](=O)[O-])Nc1cccc(Br)c1 | 2.7 (≈ 7.67 µM) |
| O=C(CN1C(=O)NC2(CCCC2)C1=O)NCCc1ccccc1 | 44.8 (≈ 142 µM) |
| OC(C[n+]1ccccc1)c1ccccc1.[Br-] (stereo unspecified) | > 42 |
| O=C(Nc1cccc(C(=O)NC2CCCCC2)c1)c1ccccc1 | 2.8 (≈ 8.68 µM) |
| Cc1ccc2nc(-c3ccc(Br)cc3)cn2c1 | < 0.3 |
| CCOc1ccc(N/C=C/C(=O)c2cc(OC)c(OC)c(OC)c2)cc1 | < 0.8 |
| Brc1c(NC2=NCCN2)ccc2nccnc12 | 11.2 (≈ 38.3 µM) |
| Cc1nnc(SCC(=O)NC2CC2)n1CC1CCCO1 (stereo unspecified) | > 44.5 |
| CCOc1ccc(CCN2CN(CC)CNC2=S)cc1OCC | > 50.6 |
| CC(=O)c1cccc(NC(=O)CC(C)n2ccnc2)c1 (stereo unspecified) | > 40.7 |
| O=C(CS(=O)(=O)c1ccc2ccccc2c1)N1CCCCCC1 | 47.1 (≈ 142 µM) |
| COc1ccc(/C(N)=N/OC(=O)CCC2CCCC2)cc1OC | 8 (≈ 25 µM) |
| N#Cc1ccc2nc3c(nc2c1)CCCC3 | 30.2 (≈ 144 µM) |

| SMILES | solubility kinetic [µg/mL] |
| --- | --- |
| CCCC(=O)OCC(=O)NC1CCCc2ccccc21 (stereo unspecified) | > 41.3 |
| COc1ccc(/C=C/C(=O)N2CCN(c3ccccn3)CC2)cc1OC | > 53 |
| O=C(Nc1cccc(NC(=O)c2ccco2)c1)c1ccccc1 | 45.9 (≈ 150 µM) |
| O=c1c2[nH]c3ccc(Br)cc3c2ncn1Cc1ccncc1 | 0.4 (≈ 1.13 µM) |
| O=C(CN1CCCCCC1)Nc1ccccc1[N+](=O)[O-] | 14 (≈ 50.5 µM) |
| CS(=O)(=O)N(CC(=O)Nc1ccc(F)cc1F)C1CCCCC1 | > 52 |
| COc1ccccc1NC(=O)c1ccccc1Oc1ccccc1 | < 0.7 |
| OC(CNCc1ccccc1)c1ccccc1 (stereo unspecified) | > 34.1 |
| C/C(=C\C(=O)c1ncc(C(F)(F)F)cc1Cl)N(C)C | 41 (≈ 140 µM) |
| CC(C)(C)C(=O)OC/C(N)=N/OC(=O)c1ccccc1 | > 41.7 |
| O=C(Nc1cccnc1)c1cc2c(s1)-c1ccccc1OC2 | 0.8 (≈ 2.59 µM) |
| COc1ccc(C)cc1S(=O)(=O)N1CCc2ccccc2C1 | 18.1 (≈ 57 µM) |
| O=C(Cc1ccc(Br)cc1)Nc1ccc(Cl)cc1 | < 0.7 |
| Cc1cc(NS(=O)(=O)c2cc(Cl)sc2Cl)no1 | > 47 |
| OC(CNCc1ccccc1Cl)C(F)(F)F (stereo unspecified) | 34.1 (≈ 134 µM) |
| Cc1nc(N2CCC(C)CC2)c(C#N)c(C)c1[N+](=O)[O-] | 0.9 (≈ 3.28 µM) |
| N/C(=N\OC(=O)Nc1ccccc1)c1ncc([N+](=O)[O-])s1 | 3.8 (≈ 12.4 µM) |
| CN1CCC(NC(=S)NC2CC2)CC1 | > 32 |
| CC(C)C(NC(=O)c1ccco1)C(=O)NC1CCCCCC1 (stereo unspecified) | 37.8 (≈ 123 µM) |
| COc1ccc(S(=O)(=O)n2cnc3ccccc32)cc1.Cl | > 48.7 |
| Cc1cc(C)c(C)c(S(=O)(=O)N2CCCN(C)CC2)c1C | > 46.6 |
| Nc1cc(=O)[nH]c(SCC(=O)NCCC2=CCCCC2)n1 | > 46.3 |
| O=C(c1cc2cccc([N+](=O)[O-])c2oc1=O)N1CCOCC1 | 40.6 (≈ 133 µM) |
| NC(=O)c1ccc[n+](CC(=O)NCc2ccc(Cl)cc2)c1.[Cl-] | > 51 |
| Cc1ccc(SCC(=O)N2CCC(C(N)=O)CC2)cc1 | > 43.9 |

| SMILES | solubility kinetic [µg/mL] |
| --- | --- |
| O=C(CSc1nnc(C2CC2)n1C1CC1)c1cccs1 | > 45.8 |
| COc1cccc(NC(=S)N2CCc3cc(OC)c(OC)cc3C2)c1 | 4.9 (≈ 13.7 µM) |
| O=C(Nc1ccccc1)/C(=C/c1ccccc1)NC(=O)c1ccco1 | 1.2 (≈ 3.61 µM) |
| O=C(NCc1ccco1)C(=O)c1cn(CC(=O)N2CCCCCC2)c2ccccc12 | 14.3 (≈ 35.1 µM) |
| O=C(OCCN1CCOCC1)c1ccc(O)cc1 | > 37.7 |
| NC(=O)C1(C(N)=O)OC1c1ccccc1 (stereo unspecified) | > 30.9 |
| CCOc1ccc2nc(SCC(=O)NC3CC3)sc2c1 | 13.1 (≈ 42.5 µM) |
| CCOCCOc1cccc(C(=O)NC(c2ccccc2)c2ccccc2)c1 | < 0.8 |
| O=[N+]([O-])c1ccc(N2CCN(c3ccccc3Cl)CC2)cn1 | 2 (≈ 6.27 µM) |
| O=C(c1ccccc1)N1CCn2c1nc1ccccc12 | 9.2 (≈ 34.9 µM) |
| COc1ccc(N(CC(=O)Nc2cccnc2)S(C)(=O)=O)cc1 | > 50.3 |
| O=[N+]([O-])c1ccc(-n2ccnc2)cc1 | > 28.4 |
| O=C(COC(=O)Cc1ccsc1)Nc1ccc(Cl)cc1F | 47.7 (≈ 146 µM) |
| Cc1cnc(NC(=O)c2ccc(OCC3CCCO3)cc2)s1 (stereo unspecified) | 7.8 (≈ 24.5 µM) |
| CC1Cc2ccccc2N1S(=O)(=O)c1cnc(Cl)c(Cl)c1 (stereo unspecified) | 0.6 (≈ 1.75 µM) |
| COC(=O)[C@H](C)NC(=O)NCCC1=CCCCC1 | > 38.1 |
| CC(=O)c1cc2c(cc1NC(=O)c1ccc(Cl)cc1)OCCO2 | < 0.7 |
| C/C(=N\NC(=O)c1ccc(Cl)cc1)c1ccccn1 | > 41.1 |
| Cc1cc(C)c2c(N)c(C(=O)Nc3ccccc3F)sc2n1 | 0.4 (≈ 1.27 µM) |
| COc1ccc(CN(C)C(=O)COC(=O)c2cc([N+](=O)[O-])ccc2N2CCCC2)c(OC)c1OC | 10.2 (≈ 20.9 µM) |
| O=C(CSc1ccccc1)NCc1ccccc1 | 22.6 (≈ 87.8 µM) |
| COc1ccc(NC(=O)CCNC(=O)c2ccco2)c(OC)c1 | > 47.7 |
| CC(=O)NC1(C(F)(F)F)NC(=O)N(CCc2ccccc2)C1=O (stereo unspecified) | > 49.4 |
| CN(C(=O)COC(=O)c1ccc2c(c1)OCO2)C1CCCCC1 | > 47.9 |
| COc1cc(NC(=O)c2ccccn2)cc(OC)c1OC | > 43.2 |

| SMILES | solubility kinetic [µg/mL] |
| --- | --- |
| CCOc1cc(C=O)ccc1OCc1cc(=O)n2cc(C)ccc2n1 | 4.4 (≈ 13 µM) |
| CC1CCC(NS(=O)(=O)c2ccc3c(c2)CC(=O)N3)CC1 (stereo unspecified) | 27.3 (≈ 88.5 µM) |
| COc1ccccc1NS(=O)(=O)c1cc(NC(=O)c2ccc(Cl)nc2)ccc1N1CCCC1 | 2.1 (≈ 4.31 µM) |
| O=S(=O)(NC1C2CC3CC(C2)CC1C3)c1ccccc1 (stereo unspecified) | 23.4 (≈ 80.3 µM) |
| O=C(O)c1ccc(S(=O)(=O)NCc2ccc3c(c2)OCO3)cc1 | > 50.3 |
| O=C(CSc1ccccn1)Nc1ccc(F)c([N+](=O)[O-])c1 | 43.5 (≈ 142 µM) |
| Cn1nccc1C(=O)OCC(=O)Nc1ccccc1 | > 38.9 |
| O=C(Nc1nccs1)c1ccc(-c2ccc(F)c(Cl)c2)o1 | 0.5 (≈ 1.55 µM) |
| C=C(C)[C@@H]1CC=C(CN2CCC(CCOC)(C(=O)OCC)CC2)CC1 | 38.7 (≈ 111 µM) |
| O=[N+]([O-])c1ccccc1S(=O)(=O)N1CCN(c2ccccn2)CC1 | 4.1 (≈ 11.8 µM) |
| CCN(Cc1ccccc1)C(=O)COC(=O)c1cnc(C)cn1 | 38 (≈ 121 µM) |
| O=C(Nc1cccc(Cl)c1)c1cc(-c2ccco2)on1 | 0.8 (≈ 2.77 µM) |
| CN1CCN(C(=O)/C=C/c2ccccc2)CC1 | > 34.5 |
| CN1CCC(N(CCc2ccccc2)C(=O)CCC(=O)O)CC1 | > 47.8 |
| Cc1ccc(S(=O)(=O)N2CCCCC2)cc1C(=O)NCc1ccccn1 | 52 (≈ 139 µM) |
| CC(CCc1ccccc1)NC(=O)CN(C)Cc1ccc(F)cc1 (stereo unspecified) | 34.4 (≈ 105 µM) |
| CCN(CC)C(=O)C1CCCN(c2ccc([N+](=O)[O-])cc2)C1 (stereo unspecified) | > 45.8 |
| CC1CCN(C(=S)NC(=O)c2cccs2)CC1 | > 40.3 |
| CN1CCN2c3ccccc3CC3(C(=O)N(C)C(=O)N(C)C3=O)C2C1 (stereo unspecified) | > 51.4 |
| O=C(NCCOc1ccccc1F)C1CC(=O)N(Cc2ccccc2)C1 (stereo unspecified) | > 53.5 |
| Cc1ccc(C(=O)NCC(=O)NC2CC2)cc1 | 33.4 (≈ 144 µM) |
| COc1ccccc1CNC(=S)NCc1ccc(Cl)cc1 | 11.8 (≈ 36.8 µM) |
| N#C/C(=C\c1ccccc1O)C(=O)Nc1cccnc1 | 2.6 (≈ 9.8 µM) |
| COc1ccc(CCN=Cc2ccc(O)cc2)cc1OC | 40.1 (≈ 141 µM) |
| Cc1cc(C)cc(NC(=O)Cn2cc(C=O)c3ccccc32)c1 | < 0.3 |

| SMILES | solubility kinetic [µg/mL] |
| --- | --- |
| O=[N+]([O-])c1cc(Cl)ccc1Nc1ccccc1 | < 0.3 |
| NS(=O)(=O)Cc1noc2ccccc12 | > 31.8 |
| O=c1[nH]c(=S)n(-c2ccc(F)cc2)c(O)c1/C=N/N1CCOCC1 | > 52.6 |
| CC(C)(C)CC(=O)NCCCN1CCOCC1 | > 36.4 |
| Nc1ccc(NC(=O)CCN2CCOCC2)cc1 | 34.8 (≈ 140 µM) |
| Cc1cc(NC(=O)NC(=O)c2ccccc2)no1 | 2.8 (≈ 11.4 µM) |
| COCCNC(=O)NC(=O)CSc1nc(C)c(C)c(C)n1 | > 46.9 |
| N/C(=N\OC(=O)c1cccc(F)c1)c1ccccn1 | 37.4 (≈ 144 µM) |
| CCOC(=O)c1cnc2c(cnn2C)c1NCCCn1ccnc1 | > 49.3 |
| COCCn1c(-c2ccc(F)cc2)nc2cccnc21 | 36.1 (≈ 133 µM) |
| O=C1CSC(=Nc2ccc(O)cc2)N1 | > 31.2 |
| CN(C)c1ccc(NC(=S)c2ccc3ccccc3n2)cc1 | < 0.2 |
| CCS(=O)(=O)c1c(S(=O)(=O)CC)c2ccccn2c1C(N)=O | > 51.7 |
| Cn1c(=O)c2c(O)c(C=Nc3ccc(F)cc3)c(=O)n(C)c2n(C)c1=O | 32.6 (≈ 91 µM) |
| Cc1cc(/C=C2/NC(=O)NC2=O)c(C)n1-c1ccncc1 | > 42.3 |
| O=C(COc1cccnc1[N+](=O)[O-])c1ccc(Cl)s1 | 37.2 (≈ 125 µM) |
| COc1ccc2nc(C)cc(NCCN3CCOCC3)c2c1 | 42.3 (≈ 140 µM) |
| COc1ccc(NS(=O)(=O)c2cc(N)ccc2N2CCOCC2)cc1 | 13.2 (≈ 36.3 µM) |
| Cn1c(O)c(C=NC2CCN(Cc3ccccc3)CC2)c(=O)[nH]c1=O | > 51.4 |
| COc1cccc(C(=O)Nc2ccccc2OC(F)(F)F)c1 | 30.6 (≈ 98.3 µM) |
| COc1ccc(-c2cc(C(=O)NC3CCCC3)no2)cc1 | 0.4 (≈ 1.4 µM) |

From PubChem BioAssay AID1996
